Data reported in PubChem BioAssay AID1963423 (Molecular Pharmacology Branch, DTP, NCI, 2024).
Values belong to the molecule of their own block, whether it stands above or below them.

Tested on: 439559-082-T-J2-PDC complex spheroid growth
Test: Anticancer human tumor 439559-082-T-J2-PDC patient-derived colon adenocarcinoma cell line growth inhibition [Asc]
Details: for IC50: curve of first compound; for viability, T/C: stronger effect = lower value
Method: Multicellular complex tumor spheroid response to apoptosis pathway targeting inhibitors Alrizomadlin, Pelcitoclax, and Dasminapant in combination with a variety of drugs and investigational agents in selected tumor cell lines
The MDM2 inhibitor alrizomadlin, the Bcl-2/Bcl-xL inhibitor pelcitoclax, and the IAPs inhibitor dasminapant were evaluated both individually and in combination with standard of care and investigational anticancer small molecules within a complex spheroid model of solid tumors. . Complex spheroids include a stromal component modeled by human endothelial cells (HUVEC) and fibroblasts modeled by human mesenchymal stem cells (MSCs). The concentration ranges selected for each drug and investigational agent were based upon clinically achievable concentrations if the clinical Cmax of the agent was known.
Compounds. The drugs and investigational agents: alrizomadlin (APG-115; NSC831270), pelcitoclax (APG-1252; NSC835773), dasminapant (APG-1387;NSC834197), TAK-243 (NSC785004), copanlisib (NSC809693), olaparib (NSC753686), talazoparib (NSC767125), cobimetinib (NSC 768068), eltanexor (KPT-8602, NSC 794443), abemaciclib (NSC 768073), sotorasib (NSC818433), adagrasib (NSC 831453), MRTX-1133 (NSC 836407), Iadademestat (ORY1001, NSC 806812), and RMC-4630 (NSC839698), were obtained from the NCI Developmental Therapeutics Program Chemical Repository. The FDA-approved anticancer drug set is available from the Developmental Therapeutics Program at https://dtp.cancer.gov/organization/dscb/obtaining/available plates.htm. […] The stock solutions were prepared in dimethyl sulfoxide (DMSO, Sigma-Aldrich, St. Louis, MO, cat. D2650) at 800-fold the tested concentration and stored at -70 degrees C prior to their use. All drugs and investigational agents were tested over a range starting from a high concentration at or near the clinical Cmax and decreasing in half-log increments. If the clinical Cmax for an agent had not been determined, the highest concentration tested was 10 microM.
The patient-derived cancer (PDC) cell lines include five colon adenocarcinomas: 186277-243-T-J2-PDC, 616215-338-R-J1-PDC, 439559-082-T-J2-PDC, 463943-066-T-J2-PDC, and 519858-162-T-J1-PDC; three pancreatic carcinomas: 323965-272-R-J2-PDC, 521955-158-R6-J3-PDC, and 521955-158-R2-J5-PDC; two uterine sarcomas: 327498-152-R-J2-PDC and 993429-296-R-J1-PDC; two rhabdomyosarcomas: 755483-174-R-J1-PDC and 772245-204-R-J1-PDC; two soft tissue sarcomas: 126254-015-R-J1-PDC and 494315-158-R-J1-PDC; two malignant fibrous histiocytomas: 317291-083-R-J1-PDC and 596521-263-R-J1-PDC; two breast carcinomas: 171881-019-R-J1-PDC and 885512-296-R-J2-PDC; and one ovarian carcinoma: 6556581-035-R-J-PDC were obtained from the NCI PDMR, (https://pdmr.cancer.gov). The established cell lines HSSY-2 synovial sarcoma (RRID:CVCL 8719), SYO-1 synovial sarcoma (RRID:CVCL_7146), MPNST malignant peripheral neural sheath tumor were obtained from the Sloan Kettering Institute. The following established cell lines were purchased from the American Type Culture Collection (ATCC, Manassas, VA), Sor the received from the NCI repository:, PANC-1 pancreatic carcinoma (CRL-1469, RRID:CVCL_0480), OVCAR-5 ovarian carcinoma (RRID:CVCL_1628), OVCAR-8 ovarian carcinoma (RRID:CVCL_1629), , MCF-7 breast carcinoma (CRL-12584, RRID:CVCL_0031), MDA-MB-231 breast carcinoma (CRL-12532, RRID:CVCL_0062), NCI-H1876 small cell lung carcinoma (CRL-5902, RRID:CVCL_1503), NCI-H510A small cell lung carcinoma (HTB-184, RRID:CVCL_1565), NCI-H1417 (CRL-5869, RRID:CVCL_1469), and NCI-H196 small cell lung carcinoma (CRL-5823, RRID:CVCL_1509). Dr. Peter Houghton (Greehey Children's Cancer Research Institute, University of Texas Health Science Center, San Antonio, TX) provided Rh-18 rhabdomyosarcoma (RRID:CVCL_1659). Pooled donor human umbilical vein endothelial cells (HUVEC, Lonza, cat. CC-2519) and human mesenchymal stem cells (hMSC, Lonza, cat. PT-2501) were purchased from Lonza (Walkersville, MD).
Cell Culture. […]
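Further: spheroids exposed to agents for 7 days starting day 3 after seeding.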
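Wherever viability, T/C is given: percent of DMSO vehicle control viability with 100% = vehicle.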

IC50 (second compound 0.03 µM): > 10 µM | IC50 (second compound 0.0949 µM): > 10 µM | IC50 (second compound 0.3 µM): > 10 µM | IC50 (second compound 0.949 µM): > 10 µM | IC50 (second compound 3 µM): > 10 µM
Structure (SMILES): O=C(c1cc(Cc2n[nH]c(=O)c3ccccc23)ccc1F)N1CCN(C(=O)C2CC2)CC1 + CCN1C(C(=O)NC23CCC(C(=O)O)(CC2)CC3)C(c2cccc(Cl)c2F)C2(C(=O)Nc3cc(Cl)ccc32)C12CCCCC2
viability, T/C (second compound 0.03 µM, first compound 0.0316 µM): 106% | viability, T/C (second compound 0.03 µM, first compound 0.1 µM): 103% | viability, T/C (second compound 0.03 µM, first compound 0.316 µM): 105% | viability, T/C (second compound 0.03 µM, first compound 1 µM): 87.5% | viability, T/C (second compound 0.03 µM, first compound 3.16 µM): 97.1% | viability, T/C (second compound 0.03 µM, first compound 10 µM): 87.8% | viability, T/C (second compound 0.0949 µM, first compound 0.0316 µM): 104% | viability, T/C (second compound 0.0949 µM, first compound 0.1 µM): 113% | viability, T/C (second compound 0.0949 µM, first compound 0.316 µM): 104% | viability, T/C (second compound 0.0949 µM, first compound 1 µM): 96.5% | viability, T/C (second compound 0.0949 µM, first compound 3.16 µM): 93.4% | viability, T/C (second compound 0.0949 µM, first compound 10 µM): 100% | viability, T/C (second compound 0.3 µM, first compound 0.0316 µM): 99.5% | viability, T/C (second compound 0.3 µM, first compound 0.1 µM): 112% | viability, T/C (second compound 0.3 µM, first compound 0.316 µM): 111% | viability, T/C (second compound 0.3 µM, first compound 1 µM): 85% | viability, T/C (second compound 0.3 µM, first compound 3.16 µM): 91% | viability, T/C (second compound 0.3 µM, first compound 10 µM): 94.9% | viability, T/C (second compound 0.949 µM, first compound 0.0316 µM): 109% | viability, T/C (second compound 0.949 µM, first compound 0.1 µM): 107% | viability, T/C (second compound 0.949 µM, first compound 0.316 µM): 113% | viability, T/C (second compound 0.949 µM, first compound 1 µM): 89.6% | viability, T/C (second compound 0.949 µM, first compound 3.16 µM): 90.4% | viability, T/C (second compound 0.949 µM, first compound 10 µM): 94.9% | viability, T/C (second compound 3 µM, first compound 0.0316 µM): 90.5% | viability, T/C (second compound 3 µM, first compound 0.1 µM): 100% | viability, T/C (second compound 3 µM, first compound 0.316 µM): 104% | viability, T/C (second compound 3 µM, first compound 1 µM): 86.7% | viability, T/C (second compound 3 µM, first compound 3.16 µM): 88.6% | viability, T/C (second compound 3 µM, first compound 10 µM): 88.8%

IC50 (second compound 0.1 µM): > 1 µM | IC50 (second compound 0.316 µM): > 1 µM | IC50 (second compound 1 µM): > 1 µM | IC50 (second compound 3.16 µM): > 1 µM | IC50 (second compound 10 µM): > 1 µM
Structure (SMILES): CNC(C)C(=O)NC1CN(S(=O)(=O)c2cccc(S(=O)(=O)N3CCC4CCC(C(=O)NC(c5ccccc5)c5ccccc5)N4C(=O)C(NC(=O)C(C)NC)C3)c2)CCC2CCC(C(=O)NC(c3ccccc3)c3ccccc3)N2C1=O (stereo not given) + Cc1c(S(C)(=O)=O)c(-c2cc(F)cc(N3CCN(c4ccc(NS(=O)(=O)c5ccc(NC(CCN6CCC(C(=O)OCCCP(=O)(O)O)CC6)CSc6ccccc6)c(S(=O)(=O)C(F)(F)F)c5)cc4)CC3)c2)c(-c2ccc(Cl)cc2)n1C(C)C
viability, T/C (second compound 0.1 µM, first compound 0.00316 µM): 102% | viability, T/C (second compound 0.1 µM, first compound 0.01 µM): 111% | viability, T/C (second compound 0.1 µM, first compound 0.0316 µM): 110% | viability, T/C (second compound 0.1 µM, first compound 0.1 µM): 88.2% | viability, T/C (second compound 0.1 µM, first compound 0.316 µM): 88% | viability, T/C (second compound 0.1 µM, first compound 1 µM): 86.3% | viability, T/C (second compound 0.316 µM, first compound 0.00316 µM): 97.9% | viability, T/C (second compound 0.316 µM, first compound 0.01 µM): 105% | viability, T/C (second compound 0.316 µM, first compound 0.0316 µM): 108% | viability, T/C (second compound 0.316 µM, first compound 0.1 µM): 85% | viability, T/C (second compound 0.316 µM, first compound 0.316 µM): 83% | viability, T/C (second compound 0.316 µM, first compound 1 µM): 79.8% | viability, T/C (second compound 1 µM, first compound 0.00316 µM): 97.5% | viability, T/C (second compound 1 µM, first compound 0.01 µM): 103% | viability, T/C (second compound 1 µM, first compound 0.0316 µM): 104% | viability, T/C (second compound 1 µM, first compound 0.1 µM): 87.1% | viability, T/C (second compound 1 µM, first compound 0.316 µM): 93.9% | viability, T/C (second compound 1 µM, first compound 1 µM): 80% | viability, T/C (second compound 3.16 µM, first compound 0.00316 µM): 91.2% | viability, T/C (second compound 3.16 µM, first compound 0.01 µM): 99.2% | viability, T/C (second compound 3.16 µM, first compound 0.0316 µM): 102% | viability, T/C (second compound 3.16 µM, first compound 0.1 µM): 71% | viability, T/C (second compound 3.16 µM, first compound 0.316 µM): 84% | viability, T/C (second compound 3.16 µM, first compound 1 µM): 69.7% | viability, T/C (second compound 10 µM, first compound 0.00316 µM): 75.5% | viability, T/C (second compound 10 µM, first compound 0.01 µM): 80.4% | viability, T/C (second compound 10 µM, first compound 0.0316 µM): 90.6% | viability, T/C (second compound 10 µM, first compound 0.1 µM): 72.8% | viability, T/C (second compound 10 µM, first compound 0.316 µM): 64.7% | viability, T/C (second compound 10 µM, first compound 1 µM): 66.1%
